Experimental data: US20180338955A1, “METHODS FOR REGULATION AND TREATMENT OF GLIOMA CELL MIGRATION AND GLIOBLASTOMA” (priority 2015, published 2018)
Entries after “also recorded” stand apart in the source; their conditions may differ. One block for each compound: values may come before it.

Assays:
U87 glioma cells = U87 glioma cells cultured on tenascin and vitronectin; cited from earlier work
glioma xenografts = details: in vivo; cited from earlier work
phospho(Y394)-Lck = biological target: T1, phospho(Y394)-Lck (Homo sapiens, UniProt P06239); assay: Western blot of hGSC lysates for phospho(Y394)-Lck; type: cell-based; details: hGSCs (GSC1, GSC2) on fibronectin, 500 nM, 2 hours
T1 construct: hGSCs isolated from two patients with glioblastomas (GSC1 and GSC2) left untreated or treated with 500 nM Lck-I for 2 hours; endogenous in cells; host or cells: primary human glioma stem cells (GSC1, GSC2) from two glioblastoma patients
T1 sequence (P06239 whole entry): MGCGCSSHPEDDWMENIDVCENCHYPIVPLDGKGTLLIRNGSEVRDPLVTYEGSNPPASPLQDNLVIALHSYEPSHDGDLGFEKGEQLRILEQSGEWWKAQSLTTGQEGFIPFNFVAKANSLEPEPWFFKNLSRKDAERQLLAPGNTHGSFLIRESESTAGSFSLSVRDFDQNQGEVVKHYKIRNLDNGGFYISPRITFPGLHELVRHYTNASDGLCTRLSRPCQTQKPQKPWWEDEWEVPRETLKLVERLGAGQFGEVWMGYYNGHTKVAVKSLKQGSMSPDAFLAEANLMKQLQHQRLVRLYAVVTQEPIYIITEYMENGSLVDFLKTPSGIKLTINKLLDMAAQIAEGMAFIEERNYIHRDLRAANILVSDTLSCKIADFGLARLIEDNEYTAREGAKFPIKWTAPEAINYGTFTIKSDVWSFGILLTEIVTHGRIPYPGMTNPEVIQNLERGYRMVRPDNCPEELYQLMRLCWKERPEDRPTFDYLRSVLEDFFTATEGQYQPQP
Procedure: For total cell lysates, cultures were lysed in 1×SDS lysis buffer supplemented with protease and phosphatase inhibitors (Sigma). Lysates were sonicated and cleared by centrifugation. […] A custom phospho-specific polyclonal antibody was generated against p([MUT])-Lck and affinity-purified against total Lck, Fyn and Lyn (Thermo Fisher). Secondary antibodies used were HRP-conjugate goat anti-mouse and goat anti-rabbit (Cell Signaling). Semi-quantitative analysis was conducted with FluorChem SP analytical software. Statistical significance was determined by the two-tailed Student's t-test.

phospho(Y118)-paxillin [1] = assay: Western blot of hGSC lysates for phospho(Y118)-paxillin; type: cell-based, human; details: hGSCs (GSC1, GSC2) on fibronectin, 500 nM, 2 hours
Source text: (§1) For total cell lysates, cultures were lysed in 1×SDS lysis buffer supplemented with protease and phosphatase inhibitors (Sigma). Lysates were sonicated and cleared by centrifugation. Samples were separated on 4-12% Bis-Tris SDS-PAGE gels (NuPAGE), transferred on to nitrocellulose and immunoblotted using the following primary antibodies: p(Y418)-Src family, Lck (D88), […], pCrkII (Cell Signaling), mortalin (a kind gift of Dr. Alice Cavanaugh), and β-actin (Sigma). A custom phospho-specific polyclonal antibody was generated against p(Y394)-Lck and affinity-purified against total Lck, Fyn and Lyn (Thermo Fisher). Secondary antibodies used were HRP-conjugate goat anti-mouse and goat anti-rabbit (Cell Signaling). Semi-quantitative analysis was conducted with FluorChem SP analytical software. Statistical significance was determined by the two-tailed Student's t-test.

phospho(Y221)-CrkII = assay: Western blot of hGSC lysates for phospho(Y221)-CrkII; type: cell-based, human; details: hGSCs (GSC1, GSC2) on fibronectin, 500 nM, 2 hours
Source text: as §1

Fyn [2] = biological target: T2, Fyn (Homo sapiens, UniProt P06241); assay: Immunoprecipitation/Western blot, phosphorylation state of Fyn; type: cell-based; details: human glioma cells, 500 nm
Procedure: (§2) For immunoprecipitation studies, U87 MG cells treated with A77 or DMSO vehicle were lysed in 1×RIPA buffer containing protease and phosphatase inhibitors (Sigma). Lysates were cleared via centrifugation and were pre-cleared with TrueBlot anti-rabbit IgG beads (eBiosience) to remove non-specific binding. Primary antibodies against Lck, Src, Fyn, Lyn or Yes (Cell Signaling) were added and the lysates were incubated overnight at 4° C. with gentle rotation. The following day, TrueBlot anti-rabbit IgG (eBioscience) beads were added to the lysate and incubated at 4° C. for 2 hours. Immunoprecipitates were washed, solubilized in 2×Laemmli buffer and boiled for 5 minutes. The supernatants were separated on an 8% Bis-Tris SDS-PAGE gel, transferred to nitrocellulose and immunoblotted.
Target sequence in this assay (P06241 whole entry): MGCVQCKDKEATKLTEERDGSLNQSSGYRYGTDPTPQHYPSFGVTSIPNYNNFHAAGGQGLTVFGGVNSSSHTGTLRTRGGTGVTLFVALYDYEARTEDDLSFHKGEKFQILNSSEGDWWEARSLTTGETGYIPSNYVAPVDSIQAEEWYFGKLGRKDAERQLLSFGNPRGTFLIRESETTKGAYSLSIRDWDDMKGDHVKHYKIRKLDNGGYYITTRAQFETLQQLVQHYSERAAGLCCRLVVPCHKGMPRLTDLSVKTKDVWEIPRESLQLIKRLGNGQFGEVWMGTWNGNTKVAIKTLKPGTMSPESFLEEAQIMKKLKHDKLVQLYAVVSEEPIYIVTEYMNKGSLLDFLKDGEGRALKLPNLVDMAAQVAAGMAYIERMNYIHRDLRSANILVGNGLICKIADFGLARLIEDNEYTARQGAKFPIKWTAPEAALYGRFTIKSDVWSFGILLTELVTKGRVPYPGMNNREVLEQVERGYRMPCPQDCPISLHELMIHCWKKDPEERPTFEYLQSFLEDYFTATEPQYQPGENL

Lyn [3] = biological target: T3, Lyn (Homo sapiens, UniProt P07948); assay: Immunoprecipitation/Western blot, phosphorylation state of Lyn; type: cell-based; details: human glioma cells, 500 nm
Procedure: as §2
Target sequence in this assay (P07948 whole entry): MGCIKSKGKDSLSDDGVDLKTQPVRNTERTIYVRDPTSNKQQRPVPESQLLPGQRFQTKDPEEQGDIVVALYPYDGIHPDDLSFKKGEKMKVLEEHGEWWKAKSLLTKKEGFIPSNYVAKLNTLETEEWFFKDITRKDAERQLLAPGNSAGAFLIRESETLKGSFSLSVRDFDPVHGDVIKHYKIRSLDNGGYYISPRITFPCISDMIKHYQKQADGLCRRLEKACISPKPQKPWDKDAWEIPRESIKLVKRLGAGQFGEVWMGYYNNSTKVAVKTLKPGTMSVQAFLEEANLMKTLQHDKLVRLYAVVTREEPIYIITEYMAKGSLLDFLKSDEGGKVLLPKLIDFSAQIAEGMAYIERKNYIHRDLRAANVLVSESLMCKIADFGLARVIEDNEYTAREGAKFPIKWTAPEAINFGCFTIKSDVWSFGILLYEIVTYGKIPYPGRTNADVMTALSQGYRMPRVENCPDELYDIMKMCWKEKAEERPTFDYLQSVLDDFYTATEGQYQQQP

phospho(Y118)-paxillin [4] = assay: Immunocytochemistry of phospho(Y118)-paxillin in human GSCs; type: cell-based; details: 500 nM, 2 hours, versus control
Procedure: (§3) To assess pseudopodia formation, GBM stem cells were seeded on fibronectin coated (10 ug/ml, Sigma) glass chamber slides (NUNC) in the presence of serum for 2.5 hours. Cultures were treated with 500 nM of Lck inhibitor or DMSO vehicle for 2 hours and then fixed in 4% formaldehyde. Samples were permeabilized and blocked with 5% normal goat serum containing 0.3% Triton X-100 in 1×PBS (Sigma) at RT for 1 hour. The samples were stained overnight at 4° C. with Phospho-Paxillin (CellSignaling). The following day, secondary antibodies were applied at manufacturer recommended dilutions for 1 hour at RT (Jackson ImmunoResearch). Samples were subsequently stained with Rhodamine RedX Phalloidin (Life Technologies) and Hoescht 33342 (Life Technologies) following manufacturer's protocols. Slides were mounted with Aqua Poly/Mount (Polysciences) and imaged using a Zeiss confocal microscope. Adobe Photoshop was used to count the total number of pseudopodia, which included both axial and radial projections, per cell for each group. Differences between groups were confirmed using Student's t-test.

human GSCs [5] = assay: Pseudopodia (lamellipodia) formation of human GSCs on fibronectin; type: cell-based; details: fibronectin substrate, 500 nM, 2 hours, versus untreated/DMSO
Procedure: as §3

human GSCs [6] = assay: Migration of human GSCs along parallel DRG axonal bundles (coverslips with parallel scratches); type: cell-based; details: human GSC-DRG axon co-cultures, versus DMSO control
Procedure: As inhibition of Lck signalling has a dramatic effect on pseudopodia extension and retraction, Applicants investigated whether Lck may also function to regulate the migration and invasion of human GSCs. […] To assess the effect of Lck signaling on the migration and interaction of hGSCs with DRG axons, Applicants seeded hGSCs on DRG axons and treated the cultures with Lck-I or PBS/DMSO for 72 hours. […] To quantify the effect of Lck inhibition on GSC migration, Applicants added GSCs on DRG axons with and without Lck-I and quantified the surface area covered by the migrating glioma cells using Image-J.

human GSCs [7] = assay: Migration of human GSCs on purified DRG axon cultures; type: cell-based; details: purified DRG axons, 72 hours
Procedure: To assess the effect of the Lck inhibitor on migrating glioma cells, GBM spheres were seeded on rat DRG cultures in Supplemented NB-A Medium containing 10% FBS. Spheres were allowed to attach for one hour. Cultures were treated with 500 nM of Lck inhibitor or DMSO vehicle for 72 hours. Samples were fixed in 4% formaldehyde for 10 minutes, permeabilized and blocked with 5% normal goat serum containing 0.3% Triton X-100 in 1×PBS (Sigma) at RT for 1 hour. The samples were stained overnight at 4° C. with Ki67 (Cell Signaling), GFAP (DAKO) and NF (EnCor Biotechnology). Area of glioma stem cell migration for each sample was calculated by normalizing the total area of migration to the interior area of the non-migrating sphere mass. Differences between groups were then confirmed using Student's test.

human GSCs [8] = assay: xCELLigence impedance assay of cell spreading/migration; type: cell-based; details: 500 nM, versus DMSO
Procedure: The xCELLigence system was used to perform cell migration assays on the RTCA DP instrument. Electrical impedance due to cell migration is represented as cell index. GBM cells were seeded on fibronectin coated wells of the RTCA CIM-plate 16 (ACEA Biosciences) and allowed to attach and spread for 1 hour at room temperature. After 1 hour, wells were treated with DMSO vehicle or 500 nM Lck inhibitor. As cells migrated towards the lower chamber containing 10% FBS with DMSO vehicle or 500 nM Lck inhbitor, measurements were captured every 5 minutes. Cell index data was plotted overtime and the slope between 2 and 6 hours was calculated.

human GSCs [9] = assay: Invasion in Alvetex scaffold; type: cell-based; details: 500 nM, 72 hours, versus untreated
Procedure: Alvetex scaffolds were coated with fibronectin (10 μg/ml) for 2 hours at 37° C. 750,000 GBM cells were plated in the center of each scaffold and allowed to attach for one hour. Cultures were grown in Supplemented NB-A Medium containing 10% FBS. Cultures were treated with 500 nM of Lck inhibitor or DMSO vehicle for 72 hours. Samples were fixed in 4% formaldehyde for 10 minutes, permeabilized with 0.1% Triton X-100 and blocked with 1% BSA-PBS for 30 minutes at room temperature. Samples were subsequently stained with Rhodamine RedX Phalloidin (Life Technologies) and Hoescht 33342 (Life Technologies) following manufacturer's protocols. Slides were mounted with Aqua Poly/Mount (Polysciences) and imaged using a Zeiss confocal microscope.

[10] = system: human glioblastoma (hGSCs); assay: Orthotopic xenograft mouse model of human glioblastoma; type: in vivo, Nu/J mice
Procedure: To determine the effect of inhibition of Lck signaling in human glioma formation in vivo, Applicants used an orthotopic xenograft mouse model of human glioblastoma (Singh et al., 2004; Valadez et al., 2014). Applicants injected under stereotactic guidance 200,000 hGSCs at coordinates −2.0 mm AP and +1.5 mm ML relative to Bregma. The Lck-I or the PBS/DMSO were administered through an Alzet pump in the lateral ventricle continuously for 4 weeks. Brains were formalin fixed and stained for human Ki67 4 weeks after the implantation.
Intracranial injections were performed using a stereotaxic apparatus (Kopf) on 8-week-old Nu/J mice initially sedated with 4% isoflurane and maintained with 2% isoflurane. After leveling the skull, a hole was drilled with a #72 micro drill bit (Kyocera) at coordinates −2.0 mm AP and +1.5 mm ML relative to Bregma. A 75 RN Hamilton syringe was then lowered to a depth of −2.5 mm DV at a rate of 0.5 mm per minute, and 200,000 primary GSCs from donor 2 resuspended in a total volume of 4 μl were injected at a rate of 0.5 μl per minute using a Stoelting Quintessiential Stereotaxic Injector. In order to reduce backflow, the syringe was allowed to rest for 2 minutes post-injection before it was withdrawn at a rate of 0.5 mm per minute, and the cavity was immediately sealed with bone wax (Ethicon). A subcutaneous pocket was formed, and an Alzet osmotic pump 1004 fitted with brain infusion kit 3 and containing either 1.175 mg of A77 (Axon Medchem) or DMSO/Kolliphor ELP vehicle was inserted near the left hind limb of the animal. A second hole was drilled at coordinates of +0.5 mm and +1.1 mm ML relative to Bregma with the same micro drill bit to allow placement of the brain infusion catheter in the right lateral ventricle. The brain infusion catheter was lowered into the brain and glued to the skull using Loctite 454 cyanoacrylate adhesive. The incision was sealed using veterinary tissue glue and a dab of antibiotic ointment was placed over the head and neck. Animals were monitored daily for weight loss, pain and distress. After four weeks, animals were euthanized with pentobarbital and perfused with 4% formaldehyde. Brains were harvested, post-fixed in 4% formaldehyde, and processed for paraffin embedding. Paraffin embedded tissue was sliced on a microtome to […] sections and placed on microscope slides. Tissues were stained for H&E and ki67 (Roche) using a Ventana Autostainer. Images were captured using a Zeiss Axiovert inverted microscope.

Lyn [11] = biological target: T3, Lyn; details: cited from earlier work
Target sequence in this assay (P07948 whole entry, species assumed): as the sequence (P07948 whole entry) above

Fyn [12] = biological target: T2, Fyn; details: cited from earlier work
Target sequence in this assay (P06241 whole entry, species assumed): as the sequence (P06241 whole entry) above

[13] = continuous infusion in the lateral ventricle for 4 weeks, n=5

SMILES: CC(C)[C@H]1C(=O)N[C@@H](CCCN=C(N)N)C(=O)NCC(=O)N[C@@H](CC(=O)O)C(=O)N[C@H](Cc2ccccc2)C(=O)N1C [EMD121974, Cilengitide]
apoptosis (U87 glioma cells): induces apoptosis
effect on glioma xenografts (glioma xenografts): significant regression

body condition score ([10]; all treated animals, 4 weeks): excellent
SMILES: COc1cc(-c2nn([C@H]3CC[C@H](N4CCN(C(C)=O)CC4)CC3)c3ncnc(N)c23)ccc1NC(=O)c1cc2ccccc2n1C [Lck-I, A770041]
phosphorylation level of Lck, phospho(Y394)-Lck (phospho(Y394)-Lck): significantly reduced; also recorded: significant reduction
phosphorylation level of paxillin, phospho(Y118)-paxillin (phospho(Y118)-paxillin [1]): significantly reduced; also recorded: significant reduction
phosphorylation level of CrkII, phospho(Y221)-CrkII (phospho(Y221)-CrkII): significantly reduced; also recorded: significant reduction
phosphorylation state of Fyn (Fyn [2]): does not affect; also recorded: no effect
phosphorylation state of Lyn (Lyn [3]): does not affect; also recorded: no effect
phospho-paxillin(Y118) staining at focal adhesions (phospho(Y118)-paxillin [4]): reduced; also recorded: almost complete absence
number of pseudopodia (lamellipodia) per cell (human GSCs [5]): significantly reduced; also recorded: significantly lower
migration along parallel axonal bundles (finger-like projections) (human GSCs [6]): complete inhibition of migration; also recorded: complete ablation of the finger-like projections
total area of migration (surface area covered by migrating glioma cells) (human GSCs [7]; 500 nM): significant reduction
integration of tumor cells within the axonal network (human GSCs [7]; n=6): almost complete lack of integration; also recorded: limited integration and expansion
migration of individual glioma cells (GFAP+/Ki67+ migrating tumor cells) (human GSCs [7]; versus control): inhibition of migration; also recorded: significant decrease
human GSC migration (surface area by electrical impedance) (human GSCs [8]): significant reduction
cell spreading (cell processes) after addition (human GSCs [8]; fibronectin-coated plate): immediate retraction of cell processes
invasion (depth/total area of invasion within scaffold, z-stack confocal) (human GSCs [9]): significant inhibition; also recorded: significant reduction
side effects of local administration ([10]; continuous infusion in the lateral ventricle for 4 weeks): no apparent side effects
invasion/migration of human glioma cells within the brain parenchyma [10, 13]: minimal invasion/integration; also recorded: significant inhibition of tumor migration and invasion; also recorded: minimal invasion and migration
tissue necrosis [10, 13]: absence of tissue necrosis; also recorded: lack of focal necrosis
tumor formation ([10]; continuous infusion in the lateral ventricle for 4 weeks, versus PBS/DMSO, n=5): complete lack of solid tumor formation; also recorded: significant inhibition of tumor formation
specificity for Lck over Lyn (Lyn [11]): 8 fold
specificity for Lck over Fyn (Fyn [12]): 300 fold
